In patent publication US10744171B2, “Sequential anti-cancer treatment” (Duke University, priority 2016, dated 2020):

Tested on: recurrent glioblastoma (WHO grade IV)
Conditions: human, in vivo

Compound: O=NN(CCCl)C(=O)NC1CCCCC1 [lomustine]
- clinical and imaging response after one cycle: significant clinical and imaging response
- imaging and clinical response after first six weeks of therapy (one cycle), both of two patients: significant imaging and clinical improvement
- response on brain scans after chemotherapy was added to Avastin: Response
- time disease free (complete tumor disappearance) post PVSRIPO infusion: > 32 months
